In PubChem BioAssay (NCI):
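All cell lines were grown in 96-well plates and treated with compound for 48 hours. TGI: total growth inhibition.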

Assays:
Test in all cases: NCI tumour cell line growth inhibition, 48 h
[1] = system: OVCAR-3 ovarian
[2] = system: SR leukemia
[3] = system: UO-31 renal
[4] = system: CCRF-CEM leukemia
[5] = system: SNB-75 CNS
[6] = system: OVCAR-5 ovarian
[7] = system: HCT-116 colon
[8] = system: A498 renal
[9] = system: RXF-631 renal
[10] = system: MDA-MB-435
[11] = system: OVCAR-4 ovarian
[12] = system: M19-MEL melanoma
[13] = system: DLD-1 colon
[14] = system: CAKI-1 renal
[15] = system: SF-268 CNS
[16] = system: XF 498 CNS
[17] = system: MDA-MB-231 breast
[18] = system: SK-OV-3 ovarian
[19] = system: BT-549 breast
[20] = system: 786-0 renal
[21] = system: DMS 273 small cell lung
[22] = system: UACC-62 melanoma
[23] = system: SNB-19 CNS
[24] = system: HOP-62 NSCLC
[25] = system: PC-3 prostate
[26] = system: SK-MEL-5 melanoma
[27] = system: EKVX NSCLC
[28] = system: IGROV1 ovarian
[29] = system: SK-MEL-2 melanoma
[30] = system: MALME-3M melanoma
[31] = system: RXF 393 renal
[32] = system: LXFL 529 NSCLC
[33] = system: NCI-H23 lung
[34] = system: NCI-H460 lung
[35] = system: HT29 colon
[36] = system: ACHN renal
[37] = system: NCI-H226 lung
[38] = system: HOP-92 NSCLC
[39] = system: HCT-15 colon
[40] = system: SN12C renal
[41] = system: DMS 114 small cell lung
[42] = system: U251 CNS
[43] = system: SF-295 CNS
[44] = system: NCI/ADR-RES ovarian
[45] = system: NCI-H522 lung
[46] = system: SF-539 CNS
[47] = system: COLO 205 colon
[48] = system: M14 melanoma
[49] = system: T-47D breast
[50] = system: DU-145 prostate
[51] = system: TK-10 renal
[52] = system: KM20L2 colon
[53] = system: SW-620 colon
[54] = system: OVCAR-8 ovarian
[55] = system: HCC-2998 colon
[56] = system: UACC-257 melanoma
[57] = system: KM12 colon
[58] = system: HOP-18 NSCLC

SMILES: c1ccc2c(NCCCCCCCCNc3c4ccccc4nc4ccccc34)c3ccccc3nc2c1
- TGI [1]: 3.22 µM
- TGI [2]: 755 nM
- TGI [3]: 2760 nM
- TGI [4]: 2150 nM
- TGI [5]: 2620 nM
- TGI [6]: 2200 nM
- TGI [7]: 1260 nM
- TGI [8]: 2680 nM
- TGI [9]: 1930 nM
- TGI [10]: 2350 nM
- TGI [11]: 2410 nM
- TGI [12]: 2270 nM
- TGI [13]: 2400 nM
- TGI [14]: 2180 nM
- TGI [15]: 2100 nM
- TGI [16]: 2250 nM
- TGI [17]: 1740 nM
- TGI [18]: 2710 nM
- TGI [19]: 2760 nM
- TGI [20]: 1950 nM
- TGI [21]: 1260 nM
- TGI [22]: 2190 nM
- TGI [23]: 3.43 µM
- TGI [24]: 2240 nM
- TGI [25]: 1670 nM
- TGI [26]: 2710 nM
- TGI [27]: 2800 nM
- TGI [28]: 1800 nM
- TGI [29]: 2230 nM
- TGI [30]: 2630 nM
- TGI [31]: 387 nM
- TGI [32]: 1810 nM
- TGI [33]: 1730 nM
- TGI [34]: 1330 nM
- TGI [35]: 1570 nM
- TGI [36]: 1820 nM
- TGI [37]: 2590 nM
- TGI [38]: 2870 nM
- TGI [39]: 2480 nM
- TGI [40]: 2180 nM
- TGI [41]: 2420 nM
- TGI [42]: 2090 nM
- TGI [43]: 2210 nM
- TGI [44]: 41.9 µM
- TGI [45]: 1880 nM
- TGI [46]: 1150 nM
- TGI [47]: 1610 nM
- TGI [48]: 2520 nM
- TGI [49]: 3.2 µM
- TGI [50]: 1940 nM
- TGI [51]: 5.98 µM
- TGI [52]: 2550 nM
- TGI [53]: 1710 nM
- TGI [54]: 2450 nM
- TGI [55]: 3.61 µM
- TGI [56]: 3.02 µM
- TGI [57]: 1590 nM
- TGI [58]: 5.19 µM
